According to publication PMC5218480 (PLoS ONE, 2017):

Test system: MV-4-11 cells
Test: Gene expression microarray analysis (Affymetrix PrimeView) and GSEA
Assay type: cell-based, human
Set-up: RFU PODN (11730768_x_at) / Fold change /veh PODN (11730768_x_at) / RFU LINC00158 (11744669_a_at) / Fold change /veh LINC00158 (11744669_a_at) / RFU DUSP10 (11751237_a_at) / Fold change /veh DUSP10 (11751237_a_at) / RFU ID3 (11757404_x_at) / Fold change /veh ID3 (11757404_x_at) / RFU PLEKHG5 (11737974_s_at) / Fold change /veh PLEKHG5 (11737974_s_at) / RFU LRRC4B (11730491_at) / Fold change /veh LRRC4B (11730491_at) / RFU GIMAP4 (11747438_a_at) / Fold change /veh GIMAP4 (11747438_a_at) / RFU KRT8 (11758183_x_at) / Fold change /veh KRT8 (11758183_x_at) / RFU CNN1 (11734310_a_at) / Fold change /veh CNN1 (11734310_a_at) / RFU VPS37D (11726825_at) / Fold change /veh VPS37D (11726825_at) / RFU C10orf10 (11716522_x_at) / Fold change /veh C10orf10 (11716522_x_at) / RFU KIR2DL2 /// KIR2DL4 /// KIR2DL5A /// KIR2DL5B /// KIR2DS1 /// KIR2DS2 /// KIR2DS3 /// KIR2DS4 /// KIR3DL3 /// KIR3DL3 /// KIR3DS1 (11738374_at) / Fold change /veh KIR2DL2 /// KIR2DL4 /// KIR2DL5A /// KIR2DL5B /// KIR2DS1 /// KIR2DS2 /// KIR2DS3 /// KIR2DS4 /// KIR3DL3 /// KIR3DL3 /// KIR3DS1 (11738374_at) / RFU C1QL1 (11718748_at) / Fold change /veh C1QL1 (11718748_at) / RFU TMPRSS4 (11747572_a_at) / Fold change /veh TMPRSS4 (11747572_a_at) / RFU HAMP (11756126_x_at) / Fold change /veh HAMP (11756126_x_at) / RFU RNFT2 (11725882_a_at) / Fold change /veh RNFT2 (11725882_a_at) / RFU NR4A2 (11747474_a_at) / Fold change /veh NR4A2 (11747474_a_at) / RFU ABCC12 (11746883_a_at) / Fold change /veh ABCC12 (11746883_a_at) / RFU TMEM136 (11760407_x_at) / Fold change /veh TMEM136 (11760407_x_at) / RFU CLDN22 /// WWC2 (11732394_at) / Fold change /veh CLDN22 /// WWC2 (11732394_at) / RFU HLA-DPB1 (11760878_x_at) / Fold change /veh HLA-DPB1 (11760878_x_at) / RFU SPINT1 (11716480_a_at) / Fold change /veh SPINT1 (11716480_a_at) / RFU GAP43 (11754022_s_at) / Fold change /veh GAP43 (11754022_s_at) / RFU A4GNT (11735810_at) / Fold change /veh A4GNT (11735810_at) / RFU PRB3 (11715151_x_at) / Fold change /veh PRB3 (11715151_x_at) / RFU TUBB4B (11761932_at) / Fold change /veh TUBB4B (11761932_at) / RFU CAPN14 (11732068_a_at) / Fold change /veh CAPN14 (11732068_a_at) / RFU TMCC2 (11721928_a_at) / Fold change /veh TMCC2 (11721928_a_at) / RFU IRGQ (11745062_a_at) / Fold change /veh IRGQ (11745062_a_at) / RFU FAM174B (11720279_a_at) / Fold change /veh FAM174B (11720279_a_at) / RFU TMPRSS4 (11748680_a_at) / Fold change /veh TMPRSS4 (11748680_a_at) / RFU FAM212B (11763350_a_at) / Fold change /veh FAM212B (11763350_a_at) / RFU PLEKHG5 (11743358_a_at) / Fold change /veh PLEKHG5 (11743358_a_at) / RFU ZSCAN30 (11745921_a_at) / Fold change /veh ZSCAN30 (11745921_a_at) / RFU CMKLR1 (11741424_a_at) / Fold change /veh CMKLR1 (11741424_a_at) / RFU LOC101060620 /// MAPK8IP1 (11723275_at) / Fold change /veh LOC101060620 /// MAPK8IP1 (11723275_at) / RFU SPTSSB (11747773_x_at) / Fold change /veh SPTSSB (11747773_x_at) / RFU PRSS12 (11739890_at) / Fold change /veh PRSS12 (11739890_at) / RFU BIN1 (11741810_x_at) / Fold change /veh BIN1 (11741810_x_at) / RFU WNT11 (11732464_a_at) / Fold change /veh WNT11 (11732464_a_at) / RFU C10orf10 (11716521_a_at) / Fold change /veh C10orf10 (11716521_a_at) / RFU C5orf56 (11738089_at) / Fold change /veh C5orf56 (11738089_at) / RFU CYB561 (11721691_x_at) / Fold change /veh CYB561 (11721691_x_at) / RFU ANKRD19P (11752326_a_at) / Fold change /veh ANKRD19P (11752326_a_at) / RFU OR2T12 /// OR2T33 /// OR2T8 (11738714_s_at) / Fold change /veh OR2T12 /// OR2T33 /// OR2T8 (11738714_s_at) / RFU VCAN (11748164_a_at) / Fold change /veh VCAN (11748164_a_at) / RFU JSRP1 (11732532_at) / Fold change /veh JSRP1 (11732532_at) / RFU KRTAP10-11 (11738290_x_at) / Fold change /veh KRTAP10-11 (11738290_x_at) / RFU MYO3A (11730013_a_at) / Fold change /veh MYO3A (11730013_a_at) / RFU EBF3 (11725865_a_at) / Fold change /veh EBF3 (11725865_a_at) / RFU CAMK2N1 (11719241_x_at) / Fold change /veh CAMK2N1 (11719241_x_at) / RFU C5orf56 (11738088_a_at) / Fold change /veh C5orf56 (11738088_a_at) / RFU OLFML3 (11715873_a_at) / Fold change /veh OLFML3 (11715873_a_at) / RFU LOC100653217 /// NTM (11731650_a_at) / Fold change /veh LOC100653217 /// NTM (11731650_a_at) / RFU MAPK11 (11762145_a_at) / Fold change /veh MAPK11 (11762145_a_at) / RFU FIZ1 (11724087_x_at) / Fold change /veh FIZ1 (11724087_x_at) / RFU OASL (11726364_x_at) / Fold change /veh OASL (11726364_x_at) / RFU SOX15 (11748057_x_at) / Fold change /veh SOX15 (11748057_x_at) / RFU CD79A (11719716_a_at) / Fold change /veh CD79A (11719716_a_at) / RFU HIST1H1D (11736915_at) / Fold change /veh HIST1H1D (11736915_at) / RFU CASKIN2 (11723855_a_at) / Fold change /veh CASKIN2 (11723855_a_at) / RFU LOC730098 (11760151_x_at) / Fold change /veh LOC730098 (11760151_x_at) / RFU OR4N2 (11742367_at) / Fold change /veh OR4N2 (11742367_at) / RFU PRRT2 (11749266_a_at) / Fold change /veh PRRT2 (11749266_a_at) / RFU SNX32 (11753110_a_at) / Fold change /veh SNX32 (11753110_a_at) / RFU CDHR5 (11726645_a_at) / Fold change /veh CDHR5 (11726645_a_at) / RFU RCAN1 (11760418_a_at) / Fold change /veh RCAN1 (11760418_a_at) / RFU FAM167A (11723789_a_at) / Fold change /veh FAM167A (11723789_a_at) / RFU FAM26E (11764081_at) / Fold change /veh FAM26E (11764081_at) / RFU ISYNA1 (11749810_s_at) / Fold change /veh ISYNA1 (11749810_s_at) / RFU ACY1 (11761880_at) / Fold change /veh ACY1 (11761880_at) / RFU 11764098_at / Fold change /veh 11764098_at / RFU SAMD14 (11745864_x_at) / Fold change /veh SAMD14 (11745864_x_at) / RFU NPB (11741838_a_at) / Fold change /veh NPB (11741838_a_at) / RFU TMPRSS6 (11731388_a_at) / Fold change /veh TMPRSS6 (11731388_a_at) / RFU KRTAP10-2 (11738614_at) / Fold change /veh KRTAP10-2 (11738614_at) / RFU ARHGAP8 /// PRR5-ARHGAP8 (11727945_x_at) / Fold change /veh ARHGAP8 /// PRR5-ARHGAP8 (11727945_x_at) / RFU KRTAP5-7 /// NADSYN1 (11734609_at) / Fold change /veh KRTAP5-7 /// NADSYN1 (11734609_at) / RFU RASL12 (11751679_a_at) / Fold change /veh RASL12 (11751679_a_at) / RFU CDKN2B (11736163_a_at) / Fold change /veh CDKN2B (11736163_a_at) / RFU PRF1 (11729649_at) / Fold change /veh PRF1 (11729649_at) / RFU, ZNF638 /// ZNF638-IT1 / Fold change vs veh, ZNF638 /// ZNF638-IT1 / RFU, PANK3 / Fold change vs veh, PANK3 / RFU, SH3YL1 / Fold change vs veh, SH3YL1 / RFU, ZEB2 / Fold change vs veh, ZEB2 / RFU, NRIP1 / Fold change vs veh, NRIP1 / RFU, PTTG1IP / Fold change vs veh, PTTG1IP / RFU, CAPN2 / Fold change vs veh, CAPN2 / RFU, MED14 / Fold change vs veh, MED14 / RFU, SNORA58 / Fold change vs veh, SNORA58 / RFU, C1orf63 / Fold change vs veh, C1orf63 / RFU, LRRFIP1 / Fold change vs veh, LRRFIP1 / RFU, NDUFAF7 / Fold change vs veh, NDUFAF7 / RFU, SLC12A2 / Fold change vs veh, SLC12A2 / RFU, IBTK / Fold change vs veh, IBTK / RFU, ESF1 / Fold change vs veh, ESF1 / Fold change vs veh, TMEM50B / RFU, TAOK1 / Fold change vs veh, TAOK1 / RFU, ACBD3 / Fold change vs veh, ACBD3 / RFU, TMA16 / Fold change vs veh, TMA16 / RFU, RWDD3 / Fold change vs veh, RWDD3 / RFU, BCAT1 / Fold change vs veh, BCAT1 / RFU, EDEM3 / Fold change vs veh, EDEM3 / RFU, TMEM33 / Fold change vs veh, TMEM33 / RFU, WDR75 / Fold change vs veh, WDR75 / RFU, AHCTF1 / Fold change vs veh, AHCTF1 / RFU, TFRC / Fold change vs veh, TFRC / RFU, ZDHHC17 / Fold change vs veh, ZDHHC17 / RFU, NOM1 / Fold change vs veh, NOM1 / RFU, ARL8B / Fold change vs veh, ARL8B / RFU, ZBTB11 / Fold change vs veh, ZBTB11 / RFU, TAMM41 / Fold change vs veh, TAMM41 / RFU, KIAA1704 /// LOC100996395 / Fold change vs veh, KIAA1704 /// LOC100996395 / RFU, ING1 / Fold change vs veh, ING1 / RFU, TRMT61B / Fold change vs veh, TRMT61B / RFU, FUBP3 / Fold change vs veh, FUBP3 / RFU, TP53 / Fold change vs veh, TP53 / RFU, TNKS2 / Fold change vs veh, TNKS2 / RFU, ZFP14 / Fold change vs veh, ZFP14 / RFU, ACTR2 / Fold change vs veh, ACTR2 / RFU, PPP3R1 / Fold change vs veh, PPP3R1 / RFU, PIK3R1 / Fold change vs veh, PIK3R1 / RFU, HNRNPA1 / Fold change vs veh, HNRNPA1 / RFU, RNF170 / Fold change vs veh, RNF170 / RFU, ZNF28 / Fold change vs veh, ZNF28 / RFU, RNGTT / Fold change vs veh, RNGTT / RFU, OGT / Fold change vs veh, OGT / RFU, BRD1 / Fold change vs veh, BRD1 / RFU, MARS / Fold change vs veh, MARS / RFU, ZNF655 / Fold change vs veh, ZNF655 / RFU, FAHD1 / Fold change vs veh, FAHD1 / RFU, BDP1 / Fold change vs veh, BDP1 / RFU, LRRCC1 / Fold change vs veh, LRRCC1 / RFU, ARID1A / Fold change vs veh, ARID1A / RFU, ZNF146 / Fold change vs veh, ZNF146 / RFU, ZNF330 / Fold change vs veh, ZNF330 / RFU, GPN3 / Fold change vs veh, GPN3 / RFU, C9orf123 / Fold change vs veh, C9orf123 / RFU, N4BP2L2 / Fold change vs veh, N4BP2L2 / RFU, ARFIP1 / Fold change vs veh, ARFIP1 / RFU, FAM179B / Fold change vs veh, FAM179B / RFU, BCL10 / Fold change vs veh, BCL10 / RFU, UHRF1BP1L / Fold change vs veh, UHRF1BP1L / RFU, BET1 / Fold change vs veh, BET1 / RFU, CNOT2 / Fold change vs veh, CNOT2 / RFU, ZNF268 / Fold change vs veh, ZNF268 / Fold change vs veh, ZNF507 / RFU, DGCR2 / Fold change vs veh, DGCR2 / RFU, WDSUB1 / Fold change vs veh, WDSUB1 / Fold change vs veh, HSP90B1 /// MIR3652 / RFU, ADSS / Fold change vs veh, ADSS / RFU, GK / Fold change vs veh, GK / RFU, ZNF148 / Fold change vs veh, ZNF148 / RFU, TAF9 / Fold change vs veh, TAF9 / RFU, SLC1A5 / Fold change vs veh, SLC1A5 / RFU, SLMO2 / Fold change vs veh, SLMO2 / RFU, ABCC4 / Fold change vs veh, ABCC4 / RFU, LOC101060439 /// RAP1B / Fold change vs veh, LOC101060439 /// RAP1B / RFU, RFX7 / Fold change vs veh, RFX7 / RFU, GTPBP10 / Fold change vs veh, GTPBP10 / RFU, CNEP1R1 / Fold change vs veh, CNEP1R1 / RFU, BIVM-ERCC5 /// ERCC5 / Fold change vs veh, BIVM-ERCC5 /// ERCC5 / RFU, ILF3 / Fold change vs veh, ILF3 / RFU 11762660_at / Fold change /veh 11762660_at / RFU VCAN (11757783_s_at) / Fold change /veh VCAN (11757783_s_at) / RFU DDX43 (11728927_at) / Fold change /veh DDX43 (11728927_at) / RFU KRT8 (11758188_x_at) / Fold change /veh KRT8 (11758188_x_at) / RFU NKD1 (11759106_at) / Fold change /veh NKD1 (11759106_at) / RFU SRD5A1 (11742802_a_at) / Fold change /veh SRD5A1 (11742802_a_at) / RFU TPSAB1 /// TPSB2 (11721975_s_at) / Fold change /veh TPSAB1 /// TPSB2 (11721975_s_at) / RFU GSTM3 (11746129_a_at) / Fold change /veh GSTM3 (11746129_a_at) / RFU IL23R (11737362_x_at) / Fold change /veh IL23R (11737362_x_at) / RFU TMEM51 (11727254_a_at) / Fold change /veh TMEM51 (11727254_a_at) / RFU PIWIL2 (11732686_x_at) / Fold change /veh PIWIL2 (11732686_x_at) / RFU ORM1 (11744905_x_at) / Fold change /veh ORM1 (11744905_x_at) / RFU CCDC152 (11743942_at) / Fold change /veh CCDC152 (11743942_at) / RFU ECM1 (11717891_a_at) / Fold change /veh ECM1 (11717891_a_at) / RFU IL23R (11748794_a_at) / Fold change /veh IL23R (11748794_a_at) / RFU TNFAIP8L3 (11732012_x_at) / Fold change /veh TNFAIP8L3 (11732012_x_at) / RFU MBOAT4 (11741988_at) / Fold change /veh MBOAT4 (11741988_at) / RFU 11764193_at / Fold change /veh 11764193_at / RFU TMEM53 (11763286_at) / Fold change /veh TMEM53 (11763286_at) / RFU MAGEB2 (11727129_at) / Fold change /veh MAGEB2 (11727129_at) / RFU TMEM200A (11744735_a_at) / Fold change /veh TMEM200A (11744735_a_at) / RFU CCDC152 (11751479_a_at) / Fold change /veh CCDC152 (11751479_a_at) / RFU FAM211A (11726209_a_at) / Fold change /veh FAM211A (11726209_a_at) / RFU RGS16 (11746705_a_at) / Fold change /veh RGS16 (11746705_a_at) / RFU VCAN (11755009_s_at) / Fold change /veh VCAN (11755009_s_at) / RFU RHOB (11743442_s_at) / Fold change /veh RHOB (11743442_s_at) / RFU RGS16 (11720943_a_at) / Fold change /veh RGS16 (11720943_a_at) / RFU RGS16 (11720944_at) / Fold change /veh RGS16 (11720944_at) / RFU, VPS4B / Fold change vs veh, VPS4B / RFU, CREB1 / Fold change vs veh, CREB1 / RFU, DNAJC13 / Fold change vs veh, DNAJC13 / RFU, GNAQ / Fold change vs veh, GNAQ / RFU, CDK5R1 / Fold change vs veh, CDK5R1 / RFU, ZRANB3 / Fold change vs veh, ZRANB3 / RFU, CUL4A / Fold change vs veh, CUL4A / RFU, CCNY / Fold change vs veh, CCNY / RFU, UFL1 / Fold change vs veh, UFL1 / RFU, COG3 / Fold change vs veh, COG3 / RFU, DIAPH2 / Fold change vs veh, DIAPH2 / RFU, SKA2 / Fold change vs veh, SKA2 / RFU, AFF3 / Fold change vs veh, AFF3 / RFU, LMF1 / Fold change vs veh, LMF1 / RFU, IPO11 / Fold change vs veh, IPO11 / RFU, DFFB / Fold change vs veh, DFFB / RFU, FOXP1 / Fold change vs veh, FOXP1 / RFU, CARD8 / Fold change vs veh, CARD8 / RFU, STRN3 / Fold change vs veh, STRN3 / RFU, ADK / Fold change vs veh, ADK / RFU, RASSF2 / Fold change vs veh, RASSF2 / RFU, WIPF1 / Fold change vs veh, WIPF1 / RFU, LARP1B / Fold change vs veh, LARP1B / RFU, RASA1 / Fold change vs veh, RASA1 / RFU, RB1 / Fold change vs veh, RB1 / RFU, PPFIA1 / Fold change vs veh, PPFIA1 / RFU, MAT2A / Fold change vs veh, MAT2A / RFU, CCT5 / Fold change vs veh, CCT5 / RFU, WDR92 / Fold change vs veh, WDR92 / RFU, CUX1 / Fold change vs veh, CUX1 / RFU, TTC7A / Fold change vs veh, TTC7A / RFU, TMEM135 / Fold change vs veh, TMEM135 / RFU, DEPTOR / Fold change vs veh, DEPTOR / RFU, CPM / Fold change vs veh, CPM / RFU, DNAJB6 / Fold change vs veh, DNAJB6 / RFU, CACNA2D3 / Fold change vs veh, CACNA2D3 / RFU, DTX4 / Fold change vs veh, DTX4 / RFU, TFCP2 / Fold change vs veh, TFCP2 / RFU, GMCL1 /// GMCL1P1 / Fold change vs veh, GMCL1 /// GMCL1P1 / RFU, AEBP2 / Fold change vs veh, AEBP2 / RFU, SNHG1 /// SNORD22 /// SNORD25 /// SNORD26 /// SNORD27 /// SNORD28 /// SNORD29 /// SNORD31 / Fold change vs veh, SNHG1 /// SNORD22 /// SNORD25 /// SNORD26 /// SNORD27 /// SNORD28 /// SNORD29 /// SNORD31 / Fold change (Aza/veh), C12orf56 (ProbeSet 11735607_a_at) / Fold change (ACY-1035/veh), C12orf56 (ProbeSet 11735607_a_at) / Fold change (Aza/veh), FGFR1OP (ProbeSet 11751329_s_at) / Fold change (ACY-1035/veh), FGFR1OP (ProbeSet 11751329_s_at) / Fold change (Aza/veh), VPS36 (ProbeSet 11739960_a_at) / Fold change (ACY-1035/veh), VPS36 (ProbeSet 11739960_a_at) / RFU SYPL1 (11715823_x_at) / Fold change /veh SYPL1 (11715823_x_at) / RFU IGFBP7 (11715501_s_at) / Fold change /veh IGFBP7 (11715501_s_at) / RFU REEP3 (11722064_at) / Fold change /veh REEP3 (11722064_at) / RFU IGLL1 (11728026_x_at) / Fold change /veh IGLL1 (11728026_x_at): dose or concentration left out as unconfirmed
Conditions: ProbeSet 11744854_x_at; LIST B

## Nc1ncn([C@@H]2O[C@H](CO)[C@@H](O)[C@H]2O)c(=O)n1 [azacitidine]
  RFU, ZNF28: 60.82 RFU
